Measured values: article PMC11124387, “A Reliable Multifaceted Solution against Foodborne Viral Infections: The Case of RiLK1 Decapeptide” (Molecules, 2024)

System: Campylobacter jejuni
Format: cell-based
Settings: peptide 40 and 80 µM, 6 h at 37 °C
Excerpt: The monophasic variant of Salmonella Typhimurium, Salmonella Napoli, and Campylobacter jejuni were isolated by the Laboratory of Microbiological Food Control—Department of Food Microbiology of the Istituto Zooprofilattico Sperimentale del Mezzogiorno in Portici (Naples, Italy) in raw and processed foodstuffs of animal origin. Specifically, the monophasic variant of S. Typhimurium and S. Napoli were isolated from bivalve mollusks, while C. jejuni was isolated from poultry meat. Bacterial cells were cultured at 37 °C in the appropriate culture media (S. Typhimurium and S. Napoli in buffered peptone water (Thermo Fisher, Milan, Italy) and C. jejuni in Bolton Broth (Oxoid, Madrid, Spain)) until collection and then diluted in fresh broth to a final concentration of 1.5 × 10^3 colony forming units (CFUs)/mL. Thereafter, peptide stock solutions in DMSO were added to the bacterial suspension at the same concentrations used in the virucidal assays (40 and 80 µM) and incubated at 37 °C for 6 h. Samples containing only cell suspension and DMSO were used as controls. […]

## KLRWVKIWKK-NH2 [RiLK30, newly designed RiLK1 derivative, Arg residues exchanged with Lys and Lys3 with Arg]
  inhibitory activity against Campylobacter jejuni (in words): the most ineffective
